In patent US20180235993A1 (priority 2000, published 2018):
Read-outs that look alike come from different tables or passages of the source.

Columns and labels:
[1] = test system: Human Hepatoma; assay: Cytotoxicity assay (sulforhodamine B, CC50), Human Hepatoma; format: cell-based; conditions: 4 days incubation
Method: (§1) Cells were seeded at a rate of between 5×10^3 and 5×10^4/well into 96-well plates in growth medium overnight at 37° C. in a humidified CO2 (5%) atmosphere. New growth medium containing serial dilutions of the drugs was then added. After incubation for 4 days, cultures were fixed in 50% TCA and stained with sulforhodamineB. The optical density was read at 550 nm. The cytotoxic concentration was expressed as the concentration required to reduce the cell number by 50% (CC50).

[2] = test system: MDBK; assay: Cytotoxicity assay (sulforhodamine B, CC50), MDBK; format: cell-based; conditions: MDBK cells, 4 days incubation
Method: as §1

[3] = test system: HepG2 cells; assay: Mitochondria toxicity assay (L-lactic acid assay); format: cell-based; conditions: Conc. 10 μM, 4 day drug exposure
Method: HepG2 cells were cultured in 12-well plates as described above and exposed to various concentrations of drugs as taught by Pan-Zhou X-R, Cui L, Zhou X-J, Sommadossi J-P, Darley-Usmer V M. “Differential effects of antiretroviral nucleoside analogs on mitochondrial function in HepG2 cells” Antimicrob Agents Chemother 2000; 44:496-503. Lactic acid levels in the culture medium after 4 day drug exposure was measured using a Boehringer lactic acid assay kit. Lactic acid levels were normalized by cell number as measured by hemocytometer count.

[4] = test system: HepG2 cells; assay: Phosphorylation assay of nucleoside to active triphosphate; format: in vitro ADME; conditions: 10 μM [3H] labeled compound
Method: To determine the cellular metabolism of the compounds, HepG2 cells were obtained from the American Type Culture Collection (Rockville, Md.), and were grown in 225 cm^2 tissue culture flasks in minimal essential medium supplemented with non-essential amino acids, 1% penicillin-streptomycin. The medium was renewed every three days, and the cells were subcultured once a week. After detachment of the adherent monolayer with a 10 minute exposure to 30 mL of trypsin-EDTA and three consecutive washes with medium, confluent HepG2 cells were seeded at a density of 2.5×10^6 cells per well in a 6-well plate and exposed to 10 μM of [^3H] labeled active compound (500 dpm/pmol) for the specified time periods. The cells were maintained at 37° C. under a 5% CO2 atmosphere. At the selected time points, the cells were washed three times with ice-cold phosphate-buffered saline (PBS). Intracellular active compound and its respective metabolites were extracted by incubating the cell pellet overnight at −20° C. with 60% methanol followed by extraction with an additional 20 μL of cold methanol for one hour in an ice bath. The extracts were then combined, dried under gentle filtered air flow and stored at −20° C. until HPLC analysis.

[5] = test system: Human bone marrow cells (BFU-E); assay: Human bone marrow toxicity, BFU-E clonogenic assay; format: cell-based; conditions: human bone marrow colony formation, 14 to 18 days
Excerpt: (§2) Human bone marrow cells were collected from normal healthy volunteers and the mononuclear population was separated by Ficoll-Hypaque gradient centrifugation as described previously by Sommadossi J-P, Carlisle R. “Toxicity of 3′-azido-3′-deoxythymidine and 9-(1,3-dihydroxy-2-propoxymethyl)guanine for normal human hematopoietic progenitor cells in vitro” Antimicrobial Agents and Chemotherapy 1987; 31:452-454; and Sommadossi J-P, Schinazi R F, Chu C K, Xie M-Y. “Comparison of cytotoxicity of the (−)- and (+)-enantiomer of 2′,3′-dideoxy-3′-thiacytidine in normal human bone marrow progenitor cells” Biochemical Pharmacology 1992; 44:1921-1925. The culture assays for CFU-GM and BFU-E were performed using a bilayer soft agar or methylcellulose method. Drugs were diluted in tissue culture medium and filtered. After 14 to 18 days at 37° C. in a humidified atmosphere of 5% CO2 in air, colonies of greater than 50 cells were counted using an inverted microscope. The results in Table 4 are presented as the percent inhibition of colony formation in the presence of drug compared to solvent control cultures.

[6] = test system: BVDV (NADL strain); assay: Yield Reduction Assay; format: cell-based, Bovine Viral Diarrhea virus
Method: The assay was performed as described by Baginski, S. G.; Pevear, D. C.; Seipel, M.; Sun, S. C. C.; Benetatos, C. A.; Chunduru, S. K.; Rice, C. M. and M. S. Collett “Mechanism of action of a pestivirus antiviral compound” PNAS USA 2000, 97(14), 7981-7986, with minor modifications. Briefly, MDBK cells were seeded onto 24-well plates (2×10^5 cells per well) 24 hours before infection with BVDV (NADL strain) at a multiplicity of infection (MOI) of 0.1 PFU per cell. Serial dilutions of test compounds were added to cells in a final concentration of 0.5% DMSO in growth medium. Each dilution was tested in triplicate. After three days, cell cultures (cell monolayers and supernatants) were lysed by three freeze-thaw cycles, and virus yield was quantified by plaque assay. Briefly, MDBK cells were seeded onto 6-well plates (5×10^5 cells per well) 24 h before use. Cells were inoculated with 0.2 mL of test lysates for 1 hour, washed and overlaid with 0.5% agarose in growth medium. After 3 days, cell monolayers were fixed with 3.5% formaldehyde and stained with 1% crystal violet (w/v in 50% ethanol) to visualize plaques. FIG. 9 is a graphical illustration of the results from the Yield Reduction Assay. FIG. 8 is an image of BVDV yield reduction in the presence of increasing concentrations of β-D-2′-CH3-riboC.

[7] = test system: YFV-17D; assay: microbe, parasite or virus in culture; format: cell-based, Yellow fever virus vaccine strain 17D; conditions: Table 12; reduce the plaque number by 50%; YFV-BHK; read-out: YFV EC50
[8] = test system: Bovine Viral Diarrhea virus (BVDV); assay: microbe, parasite or virus in culture; format: cell-based; conditions: read-out: BVDV EC50
[9] = test system: various cell systems
[10] = test system: Human bone marrow cells (CFU-GM); assay: Human bone marrow toxicity, CFU-GM clonogenic assay; format: cell-based; conditions: human bone marrow colony formation, 14 to 18 days; read-out: IC50 CFU-GM
Excerpt: as §2

[11] = test system: BVDV (strain NADL); assay: Cell Protection Assay (CPA); format: cell-based, Bovine Viral Diarrhea virus
Method: The assay was performed essentially as described by Baginski, S. G.; Pevear, D. C.; Seipel, M.; Sun, S. C. C.; Benetatos, C. A.; Chunduru, S. K.; Rice, C. M. and M. S. Collett “Mechanism of action of a pestivirus antiviral compound” PNAS USA 2000, 97(14), 7981-7986. MDBK cells (ATCC) were seeded onto 96-well culture plates (4,000 cells per well) 24 hours before use. After infection with BVDV (strain NADL, ATCC) at a multiplicity of infection (MOI) of 0.02 plaque forming units (PFU) per cell, serial dilutions of test compounds were added to both infected and uninfected cells in a final concentration of 0.5% DMSO in growth medium. Each dilution was tested in quadruplicate. Cell densities and virus inocula were adjusted to ensure continuous cell growth throughout the experiment and to achieve more than 90% virus-induced cell destruction in the untreated controls after four days post-infection. After four days, plates were fixed with 50% TCA and stained with sulforhodamine B. The optical density of the wells was read in a microplate reader at 550 nm. The 50% effective concentration (EC50) values were defined as the compound concentration that achieved 50% reduction of cytopathic effect of the virus. FIGS. 4 and 5 provide a graphical illustration of the methodology used to arrive at the 50% effective concentration (EC50) values for β-D-2′-CH3-riboG and ribavirin. FIG. 6 compares the results of the CPA for β-D-2′-CH3-riboG, β-D-2′-CH3-riboC, riboU, β-D-2′-CH3-riboA and ribavirin

[12] = test system: MDBK cells
[13] = test system: BVDV; assay: Plaque Reduction Assay; format: cell-based, Bovine Viral Diarrhea virus
Method: For each compound the effective concentration was determined in duplicate 24-well plates by plaque reduction assays. Cell monolayers were infected with 100 PFU/well of virus. Then, serial dilutions of test compounds in MEM supplemented with 2% inactivated serum and 0.75% of methyl cellulose were added to the monolayers. Cultures were further incubated at 37° C. for 3 days, then fixed with 50% ethanol and 0.8% Crystal Violet, washed and air-dried. FIG. 7 is a graphical illustration of the results from the Plaque Reduction Assay. FIG. 8 is an image of BVDV plaque formation in the presence of increasing concentrations of β-D-2′-CH3-riboU.

[14] = HepG2 cells, read-out: CC50 HepG2
[15] = Huh7 cells, read-out: CC50 Huh7
[16] = read-out: Cell Protection (EC50)

CC1(O)[C@@H](O)[C@@H](CO)O[C@H]1n1cnc2c(N)ncnc21 (stereo partly drawn) [β-D-2'-CH3-riboA]
CC50 [1, 14]: 50 to 60 µM
CC50 [1, 15]: 40 µM
CC50 [2]: 20 µM

C[C@@]1(O)[C@H](O)[C@@H](CO)O[C@H]1n1ccc(N)nc1=O [β-D-2'-CH3-riboC]
CC50 [1, 14]: 150 µM
CC50 [1, 15]: > 250 µM
CC50 [2]: 100 µM

O=c1[nH]c(=O)n([C@@H]2O[C@H](CO)[C@@H](O)[C@@H]2F)cc1I [FIAU, reference compound]
lactate [3]: 3.73 mg/10^6 cell
lactate % of Control [3]: 170.4%

C[C@@]1(O)[C@H](O)[C@@H](COP(=O)(O)OP(=O)(O)OP(=O)(O)O)O[C@H]1n1cnc2c(=O)[nH]c(N)nc21 [β-D-2′-CH3-riboG-TP]
intracellular triphosphate level ([4]; 8 h): 2.85 pmol/million cells
intracellular triphosphate level ([4]; 24 h): 0.91 pmol/million cells
intracellular triphosphate level ([4]; 30 h): 3.22 pmol/million cells
intracellular triphosphate level ([4]; 48 h): 6.26 pmol/million cells

C[C@@]1(O)[C@H](O)[C@@H](CO)O[C@H]1n1ccc(=O)[nH]c1=O [β-D-2′-CH3-riboU]
IC50 [5]: > 100 µM
Conc. for 6-log Reduction [6]: 120 μM
EC90 [6]: 24 µM
Yield Reduction 6 log10 reduction (μM) [6]: 120 μM
EC50 [7]: 33 µM
EC50 [8]: 20 µM
CC50 [9]: > 100 µM
CC50 ([9]; read-out: YFV CC50, Table 12, reduce the viability of cells by 50%, YFV-BHK system): > 100 µM
IC50 [10]: > 100 µM
EC50 [11, 16]: 20 µM
EC50 ([11]; read-out: EC50): 20 µM
CC50 [12]: > 250 µM
EC90 ([13]; read-out: EC90): < 81 µM
EC90 ([13]; read-out: Plaque Reduction (EC90)): < 81 µM

C[C@@]1(O)[C@H](O)[C@@H](COP(=O)(O)OP(=O)(O)OP(=O)(O)O)O[C@H]1n1ccc(=O)[nH]c1=O [β-D-2′-CH3-riboU-TP]
intracellular triphosphate level ([4]; 2 h): 0.40 pmol/million cells
intracellular triphosphate level ([4]; 4 h): 1.21 pmol/million cells
intracellular triphosphate level ([4]; 8 h): 1.57 pmol/million cells
intracellular triphosphate level ([4]; 24 h): 6.39 pmol/million cells
intracellular triphosphate level ([4]; 30 h): 7.18 pmol/million cells
intracellular triphosphate level ([4]; 48 h): 9.42 pmol/million cells

Cc1cn([C@@H]2O[C@H](CO)[C@@H](O)[C@@]2(C)O)c(=O)[nH]c1=O [β-D-2′-CH3-riboT]
EC50 [11, 16]: > 250 µM

C[C@@]1(O)[C@H](O)[C@@H](CO)O[C@H]1n1ccc(=O)[nH]c1=O [β-D-2'-CH3-riboU]
CC50 [1, 14]: > 250 µM
CC50 [1, 15]: > 250 µM
CC50 [2]: > 250 µM

CC1(O)[C@@H](O)[C@@H](CO)O[C@H]1n1cnc2c(=O)[nH]c(N)nc21 (stereo partly drawn) [β-D-2'-CH3-riboG]
CC50 [1, 14]: > 250 µM
CC50 [1, 15]: > 250 µM
CC50 [2]: 100 µM

C[C@@]1(O)[C@H](O)[C@@H](COP(=O)(O)OP(=O)(O)OP(=O)(O)O)O[C@H]1n1ccc(N)nc1=O [β-D-2′-CH3-riboC-TP]
intracellular triphosphate level ([4]; 2 h): 2.24 pmol/million cells
intracellular triphosphate level ([4]; 4 h): 3.99 pmol/million cells
intracellular triphosphate level ([4]; 8 h): 9.76 pmol/million cells
intracellular triphosphate level ([4]; 24 h): 34.9 pmol/million cells
intracellular triphosphate level ([4]; 30 h): 36.2 pmol/million cells
intracellular triphosphate level ([4]; 48 h): 56.4 pmol/million cells

C[C@@]1(O)[C@H](O)[C@@H](CO)O[C@H]1n1cnc2c(=O)[nH]cnc21 [β-D-2′-CH3-riboI]
EC50 [11, 16]: 45 µM

C[C@@]1(O)[C@H](O)[C@@H](COP(=O)(O)OP(=O)(O)OP(=O)(O)O)O[C@H]1n1cnc2c(N)ncnc21 [β-D-2′-CH3-riboA-TP]
intracellular triphosphate level ([4]; 2 h): 33.1 pmol/million cells
intracellular triphosphate level ([4]; 4 h): 67.7 pmol/million cells
intracellular triphosphate level ([4]; 8 h): 147 pmol/million cells
intracellular triphosphate level ([4]; 24 h): 427 pmol/million cells
intracellular triphosphate level ([4]; 30 h): 456 pmol/million cells
intracellular triphosphate level ([4]; 48 h): 288 pmol/million cells
